Source: patent publication US20130184302A1, “METHODS FOR TREATING IRRITABLE BOWEL SYNDROME (IBS) AND INFECTIONS” (priority 2011, published 2013)

System: subjects with IBS
Assay: Sustained response and recurrence of symptoms after Primary Evaluation Period, rolling 4 weeks
Format: in vivo, human
Protocol: An evaluation of the enrolled subjects was carried out after the Primary Evaluation Period in the study described in Examples 5-7. […] Subjects with no recurrence are defined as having a stool consistency score of less than 4, abdominal pain reduced by at least 30 percent or both.

[1] = Rolling 2-5 Weeks, First and Second Studies, Rifaximin (N = 624)
[2] = Rolling 3-6 Weeks, First and Second Studies
[3] = Rolling 4-7 Weeks, First and Second Studies
[4] = Rolling 4-7 Weeks, Rifaximin (N = 624)
[5] = Rolling 5-8 Weeks, First and Second Studies
[6] = Rolling 5-8 Weeks, Rifaximin (N = 624)
[7] = Rolling 6-9 Weeks, First and Second Studies
[8] = Rolling 6-9 Weeks, Rifaximin (N = 624)
[9] = Rolling 7-10 Weeks, First and Second Studies
[10] = Rolling 7-10 Weeks, Rifaximin (N = 624)
[11] = Rolling 8-11 Weeks, First and Second Studies
[12] = Rolling 8-11 Weeks, Rifaximin (N = 624)
[13] = Rolling 9-12 Weeks, First and Second Studies
[14] = Rolling 9-12 Weeks, Rifaximin (N = 624)

CO[C@H]1/C=C/O[C@@]2(C)Oc3c(C)c(O)c4c(O)c(c5c(nc6cc(C)ccn65)c4c3C2=O)NC(=O)/C(C)=C\C=C\[C@H](C)[C@H](O)[C@@H](C)[C@@H](O)[C@@H](C)[C@H](OC(C)=O)[C@@H]1C [Rifaximin, (2S,16Z,18E,20S,21S,22R, 23R,24R,25S,26S,27S,28E)-5,6,21,23,25 Pentahydroxy-27-methoxy-2,4,11,16,20,22,24,26-octamethyl-2,7-(epoxypentadeca-(1,11,13)trienimino) benzofuro (4,5-e) pyrido(1,2,-a) benzimidazole-1,15(2H)-dione,25-acetate]
Abdominal Pain or Stool Consistency: Sustained Durable Response (First and Second Studies, Rifaximin (N = 624)): (28.8%)
Abdominal Pain & Stool Consistency: Sustained Durable Response (Rifaximin (N = 624)): (33.2%)
Abdominal Pain: Sustained Durable Response (Rifaximin (N = 624)): (35.7%)
Stool Consistency: Sustained Durable Response (Rifaximin (N = 624)): (68.9%)
Abdominal Pain or Stool Consistency: No Recurrence [1]: (45.8%)
Abdominal Pain or Stool Consistency: Recurrence [1]: (1.9%)
Abdominal Pain or Stool Consistency: No Recurrence [2]: (43.9%)
Abdominal Pain or Stool Consistency: Recurrence [2]: (3.7%)
Abdominal Pain or Stool Consistency: No Recurrence [3]: (40.2%)
Abdominal Pain or Stool Consistency: Recurrence [3]: (2.7%)
Abdominal Pain & Stool Consistency: No Recurrence [4]: (48.2%)
Abdominal Pain & Stool Consistency: Recurrence [4]: (3.7%)
Abdominal Pain: No Recurrence [4]: (51.9%)
Abdominal Pain: Recurrence [4]: (3.8%)
Stool Consistency: No Recurrence [4]: (78.8%)
Stool Consistency: Recurrence [4]: (1.3%)
Abdominal Pain or Stool Consistency: No Recurrence [5]: (37.5%)
Abdominal Pain or Stool Consistency: Recurrence [5]: (2.6%)
Abdominal Pain & Stool Consistency: No Recurrence [6]: (44.6%)
Abdominal Pain & Stool Consistency: Recurrence [6]: (3.2%)
Abdominal Pain: No Recurrence [6]: (48.1%)
Abdominal Pain: Recurrence [6]: (3.0%)
Stool Consistency: No Recurrence [6]: (77.6%)
Stool Consistency: Recurrence [6]: (2.1%)
Abdominal Pain or Stool Consistency: No Recurrence [7]: (34.9%)
Abdominal Pain or Stool Consistency: Recurrence [7]: (1.6%)
Abdominal Pain & Stool Consistency: No Recurrence [8]: (41.3%)
Abdominal Pain & Stool Consistency: Recurrence [8]: (2.2%)
Abdominal Pain: No Recurrence [8]: (45.0%)
Abdominal Pain: Recurrence [8]: (2.4%)
Stool Consistency: No Recurrence [8]: (75.5%)
Stool Consistency: Recurrence [8]: (2.6%)
Abdominal Pain or Stool Consistency: No Recurrence [9]: (33.3%)
Abdominal Pain or Stool Consistency: Recurrence [9]: (1.6%)
Abdominal Pain & Stool Consistency: No Recurrence [10]: (39.1%)
Abdominal Pain & Stool Consistency: Recurrence [10]: (1.8%)
Abdominal Pain: No Recurrence [10]: (42.6%)
Abdominal Pain: Recurrence [10]: (2.4%)
Stool Consistency: No Recurrence [10]: (72.9%)
Stool Consistency: Recurrence [10]: (1.4%)
Abdominal Pain or Stool Consistency: No Recurrence [11]: (31.7%)
Abdominal Pain or Stool Consistency: Recurrence [11]: (1.3%)
Abdominal Pain & Stool Consistency: No Recurrence [12]: (37.3%)
Abdominal Pain & Stool Consistency: Recurrence [12]: (2.2%)
Abdominal Pain: No Recurrence [12]: (40.2%)
Abdominal Pain: Recurrence [12]: (2.2%)
Stool Consistency: No Recurrence [12]: (71.5%)
Stool Consistency: Recurrence [12]: (0.5%)
Abdominal Pain or Stool Consistency: No Recurrence [13]: (30.4%)
Abdominal Pain or Stool Consistency: Recurrence [13]: (1.6%)
Abdominal Pain & Stool Consistency: No Recurrence [14]: (35.1%)
Abdominal Pain & Stool Consistency: Recurrence [14]: (1.9%)
Abdominal Pain: No Recurrence [14]: (38.0%)
Abdominal Pain: Recurrence [14]: (2.2%)
Stool Consistency: No Recurrence [14]: (71.0%)
Stool Consistency: Recurrence [14]: (2.1%)
